Test results: publication PMC8973283, “First-in-Humans Evaluation of a PD-L1–Binding Peptide PET Radiotracer in Non–Small Cell Lung Cancer Patients” (Journal of Nuclear Medicine, 2022)

What was measured:
NSCLC lesions [1] = settings: human, in vivo
Procedure: Patients were injected intravenously with ^68Ga-NOTA-WL12 (1.9–3.7 MBq/kg). To determine the optimal peptide dose required to obtain high-contrast images, an escalated nonradiolabeled WL12 mass dose was coadministered with the imaging agent. The first 2 patients received 0 μg, the next 3 received 5 ug, then 60 ug, and the final group of 3 received 120 μg. […] The first patient underwent a dynamic scan at 6 time points in 1 h. The remaining 8 patients underwent PET/CT at 1 h after injection, and 6 of those were also scanned at 2 h after injection (2 patients were unable to tolerate the full 2-h examination). […] Images were reconstructed with ordered-subset expectation maximization. […] CT data were used to correct the PET images for attenuation. Vital signs, laboratory studies, and electrocardiograms were obtained before injection, during the screening period, and 2 d after PET/CT.
Images were analyzed by 2 experienced nuclear medicine physicians. […] To compare the uptake differences between the liver, spleen, small intestine (SI), and kidney among patients coadministered with different doses of WL12, multisite measurement was applied, and the uptake was calculated as an average of the number of patients corresponding to different dose administrations separately (Supplemental Fig. 3). […]

NSCLC lesions [2] = settings: human, in vivo; cited from earlier work
PD-L1 = PD-L1 (Homo sapiens, UniProt Q9NZQ7); assay: First-in-human PET/CT in advanced NSCLC patients: tumor uptake and biodistribution
Procedure: (§1) Patients were injected intravenously with ^68Ga-NOTA-WL12 (1.9–3.7 MBq/kg). To determine the optimal peptide dose required to obtain high-contrast images, an escalated nonradiolabeled WL12 mass dose was coadministered with the imaging agent. The first 2 patients received 0 μg, the next 3 received 5 ug, then 60 ug, and the final group of 3 received 120 μg. […] The first patient underwent a dynamic scan at 6 time points in 1 h. The remaining 8 patients underwent PET/CT at 1 h after injection, and 6 of those were also scanned at 2 h after injection (2 patients were unable to tolerate the full 2-h examination). […] Images were reconstructed with ordered-subset expectation maximization. CT reconstruction used a standard method with a 512 × 512 matrix and a layer thickness of 3–5 mm. CT data were used to correct the PET images for attenuation.
(§2) Images were analyzed by 2 experienced nuclear medicine physicians. The uptake parameters of major organs, tissues, and lesions were obtained to determine the organ biodistribution. SUVlean (SUL) was obtained by standardizing SUV to the body mass, which is less dependent on body habitus ([24]). […] Accordingly, we used SULmean and percentage of injected activity to describe radiopharmaceutical uptake in normal organs. To compare the uptake differences between the liver, spleen, small intestine (SI), and kidney among patients coadministered with different doses of WL12, multisite measurement was applied, and the uptake was calculated as an average of the number of patients corresponding to different dose administrations separately (Supplemental Fig. 3). To analyze normal organ uptake at different time points, 6 patients with 1- and 2-h imaging were involved. The maximum, peak, and mean values of SUV and SUL in biopsied lesions were obtained and used to correlate with PD-L1 TPS. Tumor uptake of ^68Ga-NOTA-WL12 higher than that of blood pool (BP) was considered positive.

[3] = as above; settings: human, iv
Procedure: as §1, §2

in vivo = settings: NOD/SCID, mouse, iv, 7.4 MBq (~0.17 ug), total radioactivity
PD-L1 (CHO-hPD-L1 cells) = biological target: T1, PD-L1 (CHO-hPD-L1 cells) (Homo sapiens, UniProt Q9NZQ7); assay: In vitro cellular uptake in CHO-hPD-L1 versus CHO cells; type: cell-based; settings: CHO-hPD-L1 vs CHO cells
T1 construct: expressed in transfected cells
Source text: The Chinese hamster ovary (CHO) cell line was obtained from American Type Culture Collection. A CHO cell line with constitutive PD-L1 expression (CHO-hPD-L1) was generated in our laboratory and described previously ([23]). Details of the cell culture, flow cytometry analysis for PD-L1 expression, and in vitro assays are provided in the supplemental materials.

CHO-hPD-L1 tumors = assay: Small-animal PET of NOD/SCID mice bearing CHO-hPD-L1 tumors; settings: 50 μg blocking dose coinjected
[4] = Clinical safety monitoring after PET/CT; type: in vivo, human
Procedure: Patients were injected intravenously with ^68Ga-NOTA-WL12 (1.9–3.7 MBq/kg). To determine the optimal peptide dose required to obtain high-contrast images, an escalated nonradiolabeled WL12 mass dose was coadministered with the imaging agent. The first 2 patients received 0 μg, the next 3 received 5 ug, then 60 ug, and the final group […] received 120 μg. […] The first patient underwent a dynamic scan at 6 time points in 1 h. The remaining 8 patients underwent PET/CT at 1 h after injection, and 6 of those were also scanned at 2 h after injection (2 patients were unable to tolerate the full 2-h examination). […] Images were reconstructed with ordered-subset expectation maximization. CT reconstruction used a standard method with a 512 × 512 matrix and a layer thickness of 3–5 mm. CT data were used to correct the PET images for attenuation. Vital signs, laboratory studies, and electrocardiograms were obtained before injection, during the screening period, and 2 d after PET/CT.

[5] = Radiation dosimetry in patients (OLINDA/EXM); type: in vivo, human; settings: administered dose 224 ± 37 MBq, n = 4
Procedure: Data from 4 patients with 120 μg of coinjected WL12 were used for ^68Ga-NOTA-WL12 dosimetry analysis, and the heart contents, lungs, liver, spleen, pancreas, kidneys, uterus, urinary bladder contents, and body remainder were selected as source organs. The volumes of the source organs manually drawn on CT images were calculated, and their mean counts/mL (kBq/mL) were determined from PET images at 1 and 2 h time points. Dosimetry was estimated using OLINDA/EXM software (version 2.0; Hermes Medical Solutions AB). Detailed procedures are provided in the supplemental materials.

CHO tumors = assay: Small-animal PET of NOD/SCID mice bearing negative control CHO tumors; type: in vivo
[6] = 0, 5, 60, 120 μg WL12 coadministered
[7] = 6 patients with 1- and 2-h imaging
[8] = tumor versus lung, total radioactivity

PD-L1, sequence (Q9NZQ7 19-290): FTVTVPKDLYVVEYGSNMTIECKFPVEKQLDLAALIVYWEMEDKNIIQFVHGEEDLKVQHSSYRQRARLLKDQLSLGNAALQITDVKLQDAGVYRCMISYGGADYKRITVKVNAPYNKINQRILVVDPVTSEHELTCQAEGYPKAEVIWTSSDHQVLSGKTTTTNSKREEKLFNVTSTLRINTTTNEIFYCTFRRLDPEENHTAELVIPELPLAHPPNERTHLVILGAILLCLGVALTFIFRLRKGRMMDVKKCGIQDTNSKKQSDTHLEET
T1 sequence (Q9NZQ7 19-290): as above

OC[C@H]1OC(O)[C@H]([18F])[C@@H](O)[C@@H]1O (stereo partly drawn) [^18F-FDG]
uptake in tumors (NSCLC lesions [1]): intense | radiation dose of conventional PET/CT (NSCLC lesions [2]): 7.0–14 mSv

CCCC[C@H]1C(=O)N(C)[C@@H](CCCC)C(=O)N[C@@H](CCCNC(=O)CN2CCN(CC(=O)O)CCN(CC(=O)O)CC2)C(=O)N[C@H](C(=O)NCC(N)=O)CSCC(=O)N[C@@H](Cc2ccc(O)cc2)C(=O)N(C)[C@@H](C)C(=O)N[C@@H](CC(N)=O)C(=O)N2CCC[C@H]2C(=O)N[C@@H](Cc2c[nH]cn2)C(=O)N[C@@H](CC(C)C)C(=O)N2C[C@H](O)C[C@H]2C(=O)N[C@@H](Cc2c[nH]c3ccccc23)C(=O)N[C@@H](CO)C(=O)N[C@@H](Cc2cn(C)c3ccccc23)C(=O)N1C [^68Ga-NOTA-WL12, metal not drawn]
change of liver uptake with increasing coadministered precursor dose (PD-L1; [6]): decreased | change of small intestine (SI) uptake with increasing coadministered precursor dose (PD-L1; [6]): increased | change of spleen uptake with increasing coadministered precursor dose (PD-L1; [6]): gradual decrease | kidney and BP uptake at 1 h versus mass of WL12 used (PD-L1; 0, 5, 60, 120 μg WL12 coadministered, 1 h): remained similar | change of SI uptake from 1 to 2 h (PD-L1; [7]): significant increase | change of liver uptake from 1 to 2 h (PD-L1; [7]): significant decrease | organ uptake pattern (biodistribution) (PD-L1; NSCLC patients, PET/CT): mainly observed in the SI and liver | route of clearance (PD-L1; NSCLC patients, from uptake in liver, SI and kidneys): primarily through the hepatobiliary system and secondarily through renal excretion | SUV ([3]; blood pool, SUVmax of blood pool (BP), patient 3, before therapy): 1.78 SUV | SUV ([3]; left adrenal metastasis, SUVmax of left adrenal metastasis, patient 9, PD-L1 TPS 80%): 5.47 SUV | SUV ([3]; primary tumor in left lung, SUVmax of primary tumor in left lung, patient 3, PD-L1 TPS 8%): 1.84 SUV | SUV ([3]; primary tumor, SUVmax of primary tumor, patient 9, PD-L1 TPS 80%): 4.87 SUV | SUV ([3]; right sacral metastasis, SUVmax of right sacral metastasis, patient 3, PD-L1 TPS 8%): 0.8 SUV | tissue to tissue ratio at 1 h [3, 8]: 4.45 ± 1.89 | tissue to tissue ratio at 2 h [3, 8]: 5.18 ± 2.27 | SUV ([3]; tumor, SUVmax of tumor before treatment, patient 1, PD-L1 TPS 8%): 2.21 SUV | SUV ([3]; tumor, SUVmax of tumor before treatment, patient 6, PD-L1 TPS 30%): 3.05 SUV | tissue to tissue ratio at 2 h (in vivo; tumor-to-blood-pool uptake (T/BP)): 4.5 ± 0.2 | tissue to tissue ratio at 2 h (in vivo; tumor-to-muscle uptake (T/M)): 19.1 ± 1.2 | cellular uptake in vitro (PD-L1 (CHO-hPD-L1 cells)): PD-L1–specific uptake | tumor uptake with coinjected blocking dose (in vivo specificity) (CHO-hPD-L1 tumors): decreased | changes in vital signs, laboratory studies, electrocardiograms ([4]; before injection, screening period and 2 d after PET/CT): No significant changes | adverse or pharmacologic effects ([4]; nine PET/CT examinations, 1.9–3.7 MBq/kg i.v.): no adverse or clinically detectable pharmacologic effects | Effective dose per patient [5]: 4.1 mSv | tumor uptake in negative control CHO tumors (CHO tumors): minimal uptake
